Literature values, collected in patent EP4434551A1, “METHOD FOR DIAGNOSING AND TREATING NIS-EXPRESSING CARCINOMAS AND METASTASES” (Nuske, Andreas, priority 2023, dated 2024).

Test system: NIS gene
Details: breast cancer cell line MCF-7

Compound: CC1=C(/C=C/C(C)=C/C=C/C(C)=C/C(=O)O)C(C)(C)CCC1 [tRA, trans-retinoic acid]
- induction of the NIS gene: induction of the NIS gene
